Where two headings read alike, the source gives them in different places.
Legend:
[1] = tested on: guinea pig ileum; assay: antispasmodic activity against contractions of guinea pig ileum induced by histamine and acetylcholine; settings: Cavia porcellus
Protocol: The antispasmodic activity of the products according to the invention was tested against contractions of guinea pig ileum, such as induced by histamine and acetylcholine. These tests allow to reveal an antihistaminic activity, an anticholinergic activity or a musculotropic antispasmodic activity. The response to the contracting agent (submaximum concentration)was repeated every 5 minutes before and after injection of increasing doses of the tested products (10^-8 to 10^-5 M). The various doses were added at intervals of 20 minutes or of the time necessary to the development of the maximum effect.
The percentage of inhibition under the influence of tested products was calculated and the theoretical concentration ensuring 50% inhibition was graphically determined for each experience. These values were expressed as -log IC50 (M). The standard value for papaverine was 4.50, namely an effective concentration of 30 μM.

[2] = tested on: epididymal fat of the rat; assay: effect on in vitro induced lipolysis in epididymal fat of the rat; settings: in words
Protocol: The effect on the in vitro induced lipolysis in the epididymal fat of the rat was measured by colorimetry of fatty acids liberated during the tissue incubation under the experimental conditions such as described hereinafter.
Male Sprague-Dawley rats weighing about 250 gr were sacrified by cervical dislocation after a fasting period of 18 hours. The quickly taken-off epididymal fat was placed in a Krebs-Ringer phosphate buffer at pH 7.4, containing 1% albumin.
The tissue was cut into fragments of ±20 mgr, which were dried on filter paper and homogeneously distributed in groups of ±150 mgr weighed with precision. Each group was pre-incubated (15 minutes, 37° C., stirring) in 5 ml of Krebs-Ringer phosphate buffer (pH 7.4) containing 7% of bovine albumin and the product to be tested.
After pre-incubation, 1 ml of the medium is taken off for determining the amount of basic lipolysis. The induction agent in solution in 0.1 ml of phosphate buffer is then added to 4 ml of the remaining medium and after incubation of 90 minutes under the same conditions, liberated fatty acids are titrated in 1 ml of medium according to a variant of the colorimetric method of W. G. Duncombe (Biochem. J., 83, 6P, 1962; Biochem. J., 88, 7-10, 1963; Clin. Chem. Acta, 9, 122-125, 1964).

[3] = tested on: femoral arterial circulation; assay: peripheral vasodilator activity on anaesthetized dog, femoral arterial perfusion pressure; format: in vivo; settings: 30 μg/kg injected in femoral perfusion (some also at other doses); in words
Protocol: The peripheral vasodilator activity of the products according to the invention was measured on anaesthetized dog at the level of the femoral arterial circulation. To this end, the femoral artery the collaterals of which were ligaturated was perfused with a constant flow rate of blood taken from aorta. Thus the perfusion pressure measured at the level of the femoral artery, varied as a function of the resistance of perfused area. The tested products and the corresponding solvents were directly injected in the system at the dose of 30 μg/kg. The blood circulation rate being maintained constant, a vasodilation was thus measured by a decrease of the perfusion pressure. The latter is rated in comparison with the action of papaverine considered as standard and injected once per group of 4 products.
When being of interest, the products were tested at other doses under the same conditions. The vasodilation activity was rated as follows:
+: 1/3 of the papaverine activity
++: 2/3 of the papaverine activity
+++: activity equal to that of papaverine (i.e. 30 to 40 mm Hg)
++++: activity higher than that of papaverine.

[4] = tested on: human platelet rich plasma (PRP); assay: blood platelet aggregation (Born method) in human platelet rich plasma; format: cell-based; settings: 24 μl of 2×10^-2 M solution added to 300 μl PRP; induced by thrombofax or collagen; in words
Protocol: The blood platelet aggregation was studied according to the Born Method (J. Physiol., 168, 178, 1963). Nine volumes of human venous blood were taken off and anticoagulated with one volume of a trisodium citrate solution (0.129 M). The blood was centrifuged at 200 g for 10 minutes (22° C.) for preparing the platelet rich plasma (PRP). Methanol or acetone was used in order to obtain 2×10^-2 M solutions of the various involved products, 24 μl of each product were added to 300 μl of PRP. For controls, 24 μl of the various hereinabove mentioned solvents were used. The products were pre-incubated in the presence of PRP for 4 minutes at 37° C. under continuous stirring (1100 rpm). After this incubation period, the platelet aggregation was induced by addition of 100 μl of thrombofax or collagen. The aggregation phenomenon was quantified by graphical determination of the aggregation amplitude (A).
The inhibition percentage of the agglutination amplitude was calculated as follows:
A (% inhibition): 100-(Ax /Ao)×100
Ax : value of aggregation amplitude in the presence of examined products
Ao : value of aggregation amplitude for controls

[5] = tested on: spontaneously hypertensive rats; assay: antihypertensive activity, oral administration to non-anesthetized spontaneously hypertensive rats, systolic arterial pressure (plethysmographic); format: in vivo, rat; settings: 60 mgr/kg oral (some also at other doses); in words
Protocol: Their antihypertensive activity was tested by oral administration to non-anesthetized, spontaneously hypertensive rats, on which the systolic arterial pressure is measured at the level of the median coccygeal artery by means of a plethysmographic method (J. Roba, G. Lambelin, A. F. De Schaepdryver, Arch. int. Pharmacodyn., 200, 182, 1972). The arterial pressure was measured every 30 minutes from two hours before to three hours after oral administration of 60 mgr/kg of the tested products or of a placebo (1% tragacanth gum mucilage). When being of interest, the products were tested at other doses under similar conditions. Only rats having a systolic pressure of 180 to 220 mm Hg were used. Two rats were used for each product. The treatments were made without the knowledge of the person making the measures. The antihypertensive effects were rated as follows:
+: reduction of 10 to 20 mm Hg
++: reduction of 20 to 30 mm Hg
+++: reduction of 30 to 50 mm Hg
++++: reduction >50 mm Hg

[6] = contractions induced by histamine and acetylcholine, 10^-8 to 10^-5 M, read-out: -log IC50 (M), antispasmodic activity (converted)

SMILES | IC50 [1, 6] [M] | effect on induced lipolysis [2] | peripheral vasodilator activity (compared with papaverine) [3] | anti-aggregation effect [4] | other results
CCCCCCCCNC(C)C(OC(=O)C(C)(C)C)c1ccc(SC(C)C)cc1 (centres unmarked) [Compound 1] | < 1e-06 | active |  |  | IC50 ([1]; 50% inhibition of contractions, converted from -log IC50, read-out: effective concentration / concentration corresponding to -log IC50 (converted)): < 1e-06 M
CCCCCCCCNC(C)C(OC(C)=O)c1ccc(SC(C)C)cc1.Cl (centres unmarked) [Compound 3, 1-Acetyloxy-1-(4-isopropylthiophenyl)-2-n-octylaminopropane hydrochloride] |  |  | at least equal to that of papaverine | strong anti-aggregation effect | IC50 ([1]; read-out: -log IC50 (M), antispasmodic activity (converted)): < 1e-06 M; IC50 ([1]; read-out: effective concentration / concentration corresponding to -log IC50 (converted)): < 1e-06 M
CCCCCCCCNC(C)C(OC(=O)CC(C)(C)C)c1ccc(SC(C)C)cc1.Cl (centres unmarked) [Compound 30, 1-neopentylcarbonyloxy-1-(4-isopropylthiophenyl)-2-n-octylaminopropane (hydrochloride)] | < 1e-06 |  |  | strong anti-aggregation effect | antihypertensive activity [5]: suitable antihypertensive activity
CCCCCCCCNC(C)C(O)c1ccc(OC)cc1 (centres unmarked) [Compound 74, 1-(4-methoxyphenyl)-2-n-octylamino-1-propanol] |  | active | at least equal to that of papaverine |  | 
CCCCCCCCNC(C)C(O)c1ccc(C)cc1 (centres unmarked) [Compound 75] |  | active |  |  | 
CCCCCCCCNC(C)C(O)c1ccccc1 (centres unmarked) [Compound 76] |  | active |  |  | 

From patent US4474977A, “Amino-alcohol derivatives” (Continental Pharma S.A., priority 1977, dated 1984)
